# Experimental data: patent US12404232B2, “Compounds and compositions for intracellular delivery of therapeutic agents” (ModernaTX, Inc., priority 2015, dated 2025)
# How the values were obtained:
# rat = experiment: Clinical chemistry and hematology in rat after intravenous administration; assay type: in vivo; design: unit not given here; settings: 2 mpk, 48 h post dose
# Experimental: Sample formulations of nanoparticle compositions including different lipids were administered intravenously to rat at a dose of 2 mpk. The expression of various clinical markers was evaluated at 48 h post dose and compared to that induced by administration of MC3 formulations or phosphate buffered saline (PBS).
# (§1) Table 19 summarizes the hEPO expression, IP-10 induction, liver and spleen levels, and alanine aminotransferase (ALT) and aspartate aminotransferase (AST) measured upon intravenous administration of formulations including Compounds 48, 49, and 50 to rat at 0.2 and 2 mpk and hEPO mRNA. hEPO concentrations were measured 6 hours after administration, while cytokine induction and liver and spleen levels were measured 48 hours after administration. hEPO and IP-10 concentrations are presented in pg/ml, while liver levels are provided in ng/g. ALT and AST levels are presented in international units.
# rats [1] = experiment: Residual lipid levels in liver and spleen of rats (UPLC-MS quantification); assay type: in vivo, rat; settings: rats, 2 mpk, 48 h; assuming 300 g rat and 15 g liver
# Experimental: At 48 h liver tissue was harvested for lipid quantification. To pre-weighed tissues, Milli-Q water was added (900 μL water per 100 mg tissue). Tissues were homogenized using an Omni probe homogenizer until uniform. 50 μL of samples and matrix calibration standards were aliquoted into a 96-well plate. 50 μL of blank matrix for matrix blanks and control blanks were aliquoted. 400 μL IS spiking solution were manually added to all samples except matrix blanks. 400 μL of 50:50 ACN:IPA were manually added to matrix blanks. The plate was covered and the samples vortexed and centrifuged for 5 minutes at >3000 rpm. 200 μL of the samples were transferred into a clean 96-well plate for analysis. Samples were analyzed on a Waters Acquity UPLC using a Higgins Analytical Clipeus C8 column ([…], 30×2.1 mm) and a gradient of either 70-95% or 60-95% (Mobile Phase A: 5 mM ammonium formate in 50:50:1 H2O:MeOH:formic acid; Mobile Phase B: 5 mM ammonium formate in 100:1 MeOH:formic acid) over 1.3 min at 1.2 mL/min (column temperature 55° C.). Detection was based on electrospray ionization (ESI) in positive mode using a Sciex API5500 Mass Spectrometer.
# The expression of hEPO in rats intravenously administered a nanoparticle composition at a dose of 0.2 mpk or 2.0 mpk was measured at 6 hours. Table 16 summarize the ratio of hEPO expression levels using various nanoparticle compositions as compared to the hEPO expression level using MC3 formulation and the lipid levels in the liver measured 48 hours after administration, as described above. Tables 17 and 18 summarize the lipid levels in the liver and spleen measured 48 hours after administration of Compounds 28, 33, 53, and 54. Liver and spleen levels represent the average values calculated for 3 rats in each group. As is shown in Tables 17 and 18, less than 10% of Compounds 28, 33, 53, and 54 remained in the liver after 48 hours, while greater than 60% of MC3 remained.
# as §1
# The expression of hEPO induced by intravenous administration to rats of nanoparticle compositions at various doses was measured at 2, 4, 6, 8, 24, and 48 hour time points. FIGS. 3-6 respectively summarize the hEPO expression measured upon intravenous administration of formulations including Compounds 26, 18, 25, and MC3 to rat at various doses. The lipid levels of Compound 26 in the liver after 48 hours were about 19%.
# The expression of hEPO and lipid levels in the liver and spleen in rats intravenously administered a nanoparticle composition at a dose of 0.2 mpk was measured at various timepoints. Compounds 18 and 25 were selected for comparison with MC3. Lipids were formulated according to the standard MC3 formulation described above. Rats were administered intravenously a single 0.2 mpk dose and expression monitored at 0.25, 0.5, 1, 2, 4, 8, 24, and 48 hours after administration.
# mice [2] = experiment: Cytokine induction (IL-6, IP-10) in mice after intravenous administration; assay type: in vivo; design: IL-6 / IP-10: unit not given here; settings: 0.5 mpk, 6 hours
# Method in brief: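 Nanoparticle compositions given intravenously to mice at 0.5 mpk; serum cytokine concentrations measured at 6 hours, with MC3 formulation and PBS as comparators.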
# mice [3] = experiment: Luc expression (total flux) after intramuscular administration; assay type: in vivo; settings: 6 hours after intramuscular administration, Luc mRNA and H10 mRNA
# rats [4] = experiment: Cytokine induction (IP-10) in rats after intravenous administration; assay type: in vivo; settings: rat, 6 hours after administration of hEPO nanoparticle compositions, 2.0 mpk
# Experimental: The expression of hEPO and cytokine induction in rats intravenously administered a nanoparticle composition at a dose of 2.0 mpk was measured at 6 h.
# as §1
Alanine aminotransferase (Concentration) (rat),Aspartate aminotransferase (Concentration) (rat),Lymphocytes (Concentration) (rat),Monocytes (Concentration) (rat),Neutrophils (Concentration) (rat),"% Lipid Remaining in liver, 48 h* 2 mpk (rats [1]) [%]",IL-6 (mice [2]),IP-10 (mice [2]),IP-10 (rats [4]) [pg/mL],Compound,Total flux (p/s) 0.001 mpk Dose (mice [3]) [p/s],Total flux (p/s) 0.01 mpk Dose (mice [3]) [p/s]
51.5,90,14100,1834,1790.5,0.016,163.53,1172.93,323.5,"CCCCCC/C=C\COC(=O)CCCCCCCN(CCO)CCCCCCCC(=O)OC(CCCCCCCC)CCCCCCCC [Compound 24, Heptadecan-9-yl (Z)-8_((2-hydroxyethyl) (8-(non-2-en-1-yloxy)-8-oxooctyl)amino)octanoate]",3.78E+06,3.97E+07
53.5,87.5,12051,2103,3388.5,14,,,542,"CCCCCCCCCN(CCO)CCCCCCCC(=O)OC(CCCCCCCC)CCCCCCCC [Compound 3, Heptadecan-9-yl 8-((2-hydroxyethyl)(nonyl)amino)octanoate]",3.58E+06,4.95E+07
56,95,10408.5,877,3195,<0.01,152.51,1638.77,214.5,"CCCCCCCCCOC(=O)CCCCCCCN(CCO)CCCCCCCOC(=O)C(CCCCCCCC)CCCCCCCC [Compound 30, 7-((2-Hydroxyethyl)(8-(nonyloxy)-8-oxooctyl)amino)heptyl 2-octyldecanoate]",2.47E+06,3.77E+07
